# In PMC8923065, “Paeoniflorin reduce luxS/AI-2 system-controlled biofilm formation and virulence in Streptococcus suis” (Virulence, 2021):
# Target: T1, LuxS (Streptococcus suis, UniProt B2CMA5)
# T1 construct: recombinant from pET28-luxS in E. coli BL21(DE3), HisTrap purified
# Test: Ellman assay of homocysteine, […] nm, Michaelis-Menten fit
# Assay type: biochemical
# Settings: SRH as substrate, 6.25-25 ug/ml PF, pH 7.2, 37 °C; competitive; partial inhibition
# T1 sequence (B2CMA5 entry or part of it): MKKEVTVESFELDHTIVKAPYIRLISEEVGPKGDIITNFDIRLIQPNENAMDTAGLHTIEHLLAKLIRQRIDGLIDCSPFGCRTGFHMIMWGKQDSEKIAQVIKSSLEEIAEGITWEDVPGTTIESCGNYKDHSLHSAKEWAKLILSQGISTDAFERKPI
compound,measurement,value
"C[C@@]12C[C@@]3(O)O[C@@H](O1)[C@]1(COC(=O)c4ccccc4)[C@H]3C[C@@]12O[C@@H]1O[C@H](CO)[C@@H](O)[C@H](O)[C@H]1O [PF, paeoniflorin]","Ellman assay of homocysteine, 412 nm, Michaelis-Menten fit","the Km value of LuxS gradually increases, although the maximum reaction rate does not change"
